We go through one substance from patent US8129121B2, “Regulation of lipid droplet formation by modulation of FIT1 and FIT2 and uses thereof” (Albert Einstein College of Medicine of Yeshiva University, priority 2007, dated 2012).

One data set has as its system NIH-3T3 L1 adipocytes. In words: Lentivirus shRNA knockdown of FIT2 in NIH-3T3 L1 cells during adipogenesis: lipid droplets, differentiation markers, TG biosynthesis, lipolysis. The data set is classed as cell-based, mouse. From the text:
(§1) FIG. 4A-4C. shRNAi mediated knockdown of FIT2. NIH-3T3 or RAW246.7 cells were infected with lentivirus expressing shRNA sequence targeting murine FIT2 (FIT2shRNA), or control shRNA (contshRNA), or no lentivirus (control). (A) FIT2shRNA reduced lipid droplet formation during NIH-3T3 cell differentiation (days of differentiation are shown above image) as visualized by BODIPY493/503 staining. […] Expression of differentiation markers Apt and PPARgamma, were not changed in FIT2shRNA treated cells compared to controls.
FIG. 11A-11B. Triglyceride biosynthesis and lipolysis assays in FIT2 knockdown cells. (A) Triglyceride synthesis measurements were performed at each time point during differentiation using ^14C glycerol and TLC analysis of triglyceride levels quantified by PhosphorImager analysis. Each time point contained 3 independent samples for each condition, and represented as mean±std, p<0.001. […] (B) Lipolysis assays performed on cell lysates from NIH 3T3-L1 cells at day 4 and day 6 of differentiation. No differences were observed between control and shRNAcont and FIT2shRNA adipocytes.
Cell culture. HEK293, and HeLa cells were grown in DMEM 10% FBS. NIH-3T3 L1 adipocytes were a kind gift from Philip Scherer and grow and differentiated by standard methods (24).
Triglyceride biosynthesis and DGAT assays. Cells in culture were incubated with 7.5 μCi/mL of 14C-glycerol (Specific activity: 125-180 mCi/mmol, NEN-Amersham) for the indicated times, followed by extraction with HIP and separation by TLC as referenced above. Radioactive triglycerides were quantified using PhosphorImager analysis and represented as a rate of triglyceride production using arbitrary units obtained from PhosphorImager analysis.
Lipase activity assay. Total cellular lipase activity was measured using the established method of Holm and Osterlund in Methods in Molecular Biology 1999; 109, p 109-121.
(§2) Double stranded shRNA DNAs were used to generate lentiviruses using the U6 promoter driven BLOCK-iT Lentivirus RNAi expression system (Invitrogen Corporation). Knockdown of human FIT2 in HEK293 cells was performed by stably transfection using pEntryU6 vector (Invitrogen Corp). NIH-3T3 L1 pre-adipocytes and HepG2 cells were infected with an MOI of 10-50.
(§3) shRNA suppression of FIT2 abolishes lipid droplet formation during adipogenesis. To provide a direct test if FIT proteins are essential for the formation of lipid droplets, knockdown of FIT expression was sought in established cellular models of lipid droplet formation. […]

In a further data set the test system is FIT2. The experiment in a line: Lentivirus shRNA knockdown of FIT2 in NIH-3T3 L1 cells, FIT2 mRNA and protein. The following applies: adipocytes infected with lentivirus, vs control shRNA or no virus. The data set is classed as cell-based, mouse.
From the text: as §1
Lentivirus shRNA. The following short hairpin RNA (shRNA) sequences (sense strand shown) were used to knockdown mouse FIT2 expression: shRNAcont, […] (SEQ ID NO:20); shRNAFIT2, (SEQ ID NO:21) […].
as §2, §3

With “FIT2 shRNA: lentivirus-expressed short hairpin RNA targeting murine FIT2, SEQ ID NO:21 (CACCGCACCATGTTTGGTTTGTTGGCGAACCAACAAACCAAACATGGTGC)”, in the data set with NIH-3T3 L1 adipocytes (14C glycerol, TLC, knockdown adipocytes compared to controls), the Triglyceride biosynthesis entry is reported as “similar”. Further, the lipid droplets entry in the data set on NIH-3T3 L1 adipocytes (BODIPY493/503 staining, pre-adipocytes (day 0) and mature adipocytes (day 4 to 9)) is listed as “almost complete absence of lipid droplets”. In addition, the “expression of PPARgamma and AP2 (markers of adipocyte differentiation)” value in the data set on NIH-3T3 L1 adipocytes (FIT2 suppressed cells, Northern blot) is “not changed”. Also, in the data set with NIH-3T3 L1 adipocytes (cell lysates at day 4 and day 6 of differentiation, compared to controls), the triglyceride lipase activities result is “similar”. Also, in the data set with FIT2 (Northern blot), the “FIT2 mRNA” value was “significantly suppressed”. The FIT2 protein entry in the data set on FIT2 (Western blot) is “significantly suppressed”.
